# Laboratory results reported in US9833497B2, “Human originated EGF domain proteins and use of the same” (CHENGDU SOURCEBIO LIMITED-LIABILITY COMPANY, priority 2013, dated 2017).
# What was measured:
# Format in all cases: cell-based
# Enterobacter cloacae = test: MIC against Gram-negative bacteria: Enterobacter cloacae; conditions: 5×10^5 CFU/mL
# Method in brief: (§1)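 The recombinant human-originated EGF domain proteins were serially diluted two-fold against bacteria at 5×10^5 CFU/mL in LB medium. After shaken incubation at 37° C, the lowest concentration with no bacterial growth was recorded as the MIC.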
# Proteus vulgaris = test: MIC against Gram-negative bacteria: Proteus vulgaris; conditions: 5×10^5 CFU/mL
# Method in brief: as §1
# E. coli BL21 = test: MIC against Gram-negative bacteria: E. coli BL21; conditions: 5×10^5 CFU/mL
# Method in brief: as §1
# Moraxella catarrhalis = test: MIC against Gram-negative bacteria: Moraxella catarrhalis; conditions: 5×10^5 CFU/mL
# Method in brief: as §1
# Klebsiella pneumonia = test: MIC against Gram-negative bacteria: Klebsiella pneumonia; conditions: 5×10^5 CFU/mL
# Method in brief: as §1
# Pseudomonas aeruginosa = test: MIC against Gram-negative bacteria: Pseudomonas aeruginosa; conditions: 5×10^5 CFU/mL
# Method in brief: as §1
# Proteus mirabilis = test: MIC against Gram-negative bacteria: Proteus mirabilis; conditions: 5×10^5 CFU/mL
# Method in brief: as §1
# E. coli DH5α = test: Antibacterial activity: MIC and growth curve against E. coli DH5α in 96-well plate; conditions: minimal inhibitory concentration against E. coli DH5α; 96-well plate, 5×10^5 CFU/mL, 37° C., judged after 8 h
# Method in brief: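 Log-phase bacteria (OD600 ~0.5) resuspended in LB at 5×10^5 CFU/mL, exposed to recombinant protein at 50, 25, 12.5 μg/mL final in triplicate, 37 °C shaking at 175 rpm. OD600 read every 30 min; MIC is lowest concentration showing no growth.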
# Aeromonas hydrophila = test: MIC against Gram-negative bacteria: Aeromonas hydrophila; conditions: 5×10^5 CFU/mL
# Method in brief: as §1
# Serratia marcescens = test: MIC against Gram-negative bacteria: Serratia marcescens; conditions: 5×10^5 CFU/mL
# Method in brief: as §1
# Citrobacter diversus = test: MIC against Gram-negative bacteria: Citrobacter diversus; conditions: 5×10^5 CFU/mL
# Method in brief: as §1
# [1] = E. cloacae, 10 h cultivation at 37° C.
# [2] = P. vulgaris, 10 h cultivation at 37° C.
# [3] = M. catarrhalis, 10 h cultivation at 37° C.
# [4] = K. pneumonia, 10 h cultivation at 37° C.
# [5] = P. aeruginosa, 10 h cultivation at 37° C.
# [6] = P. mirabilis, 10 h cultivation at 37° C.
# [7] = A. hydrophila, 10 h cultivation at 37° C.
# [8] = S. marcescens, 10 h cultivation at 37° C.
# [9] = C. diversus, 10 h cultivation at 37° C.
# [10] = Enterobacter cloacae, 96-well plate, 37° C., 10 h
# [11] = Proteus vulgaris, 96-well plate, 37° C., 10 h
# [12] = Moraxella catarrhalis, 96-well plate, 37° C., 10 h
# [13] = Klebsiella pneumonia, 96-well plate, 37° C., 10 h
# [14] = Pseudomonas aeruginosa, 96-well plate, 37° C., 10 h
# [15] = Proteus mirabilis, 96-well plate, 37° C., 10 h
# [16] = Aeromonas hydrophila, 96-well plate, 37° C., 10 h
# [17] = Serratia marcescens, 96-well plate, 37° C., 10 h
# [18] = Citrobacter diversus, 96-well plate, 37° C., 10 h
Substance,MIC (μg/mL) E. cloacae (Enterobacter cloacae; [1]) [µg/mL],MIC (μg/mL) P. vulgaris (Proteus vulgaris; [2]) [µg/mL],MIC (μg/mL) E. coli BL21 (E. coli BL21; 10 h cultivation at 37° C.) [µg/mL],MIC (μg/mL) M. catarrhalis (Moraxella catarrhalis; [3]) [µg/mL],MIC (μg/mL) K. pneumonia (Klebsiella pneumonia; [4]) [µg/mL],MIC (μg/mL) P. aeruginosa (Pseudomonas aeruginosa; [5]) [µg/mL],MIC (μg/mL) P. mirabilis (Proteus mirabilis; [6]) [µg/mL],MIC (E. coli DH5α) [mg/L],MIC (μg/mL) A. hydrophila (Aeromonas hydrophila; [7]) [µg/mL],MIC (μg/mL) S. marcescens (Serratia marcescens; [8]) [µg/mL],MIC (μg/mL) C. diversus (Citrobacter diversus; [9]) [µg/mL],MIC (μg/mL) E. cloacae (Enterobacter cloacae; [10]) [µg/mL],MIC (μg/mL) P. vulgaris (Proteus vulgaris; [11]) [µg/mL],"MIC (μg/mL) E. coli BL21 (E. coli BL21; 96-well plate, 37° C., 10 h) [µg/mL]",MIC (μg/mL) M. catarrhalis (Moraxella catarrhalis; [12]) [µg/mL],MIC (μg/mL) K. pneumonia (Klebsiella pneumonia; [13]) [µg/mL],MIC (μg/mL) P. aeruginosa (Pseudomonas aeruginosa; [14]) [µg/mL],MIC (μg/mL) P. mirabilis (Proteus mirabilis; [15]) [µg/mL],MIC (μg/mL) A. hydrophila (Aeromonas hydrophila; [16]) [µg/mL],MIC (μg/mL) S. marcescens (Serratia marcescens; [17]) [µg/mL],other results
PRT787 (RQICDCLNNSTCDHITGTCYCSPGWKGARCD; listed as Homo sapiens),12.5,25,12.5,50,12.5,12.5,25,12.5,12.5,12.5,25,,,,,,,,,,
PRT505 (CECHVKGSHSAVCHLETGLCDCKPNVTGQQCDQCLHGYYGLDSGHGCRP; listed as Homo sapiens),,,,,,,,50,,,,,,,,,,,,,"MIC against E. cloacae (Enterobacter cloacae; 96-well plate, 37° C., 10 h): 50 mg/L; MIC against P. vulgaris (Proteus vulgaris; 96-well plate, 37° C., 10 h): 25 mg/L; MIC against E. coli BL21 (E. coli BL21; 96-well plate, 37° C., 10 h): 12.5 mg/L; MIC against M. catarrhalis (Moraxella catarrhalis; 96-well plate, 37° C., 10 h): 25 mg/L; MIC against K. pneumonia (Klebsiella pneumonia; 96-well plate, 37° C., 10 h): 12.5 mg/L; MIC against P. aeruginosa (Pseudomonas aeruginosa; 96-well plate, 37° C., 10 h): 50 mg/L; MIC against P. mirabilis (Proteus mirabilis; 96-well plate, 37° C., 10 h): 12.5 mg/L; MIC against A. hydrophila (Aeromonas hydrophila; 96-well plate, 37° C., 10 h): 12.5 mg/L; MIC against S. marcescens (Serratia marcescens; 96-well plate, 37° C., 10 h): 50 mg/L; MIC against C. diversus (Citrobacter diversus; 96-well plate, 37° C., 10 h): 50 mg/L"
PRT844 (CRCNRHSECAGVGARDHCLLCRNHTKGSHCEQCLPLFVGSAVGGGTCRP; listed as Homo sapiens),50,12.5,25,25,12.5,50,12.5,12.5,12.5,25,50,,,,,,,,,,
PRT36 (PVRDCSKDNGGCSKNFRCISDRKLDSTGCVCPSGLSPMKDSSGCY; listed as Homo sapiens),,,,,,,,12.5,,,,25,12.5,25,25,12.5,12.5,25,25,25,MIC (μg/mL) C. diversus (Citrobacter diversus; [18]): 50 µg/mL
PRT91 (DTNECIQFPFVCPRDKPVCVNTYGSYRCRTNKKCSRGYEPNEDGTAC; listed as Homo sapiens),,,,,,,,12.5,,,,12.5,50,12.5,25,12.5,12.5,12.5,25,12.5,MIC (μg/mL) C. diversus (Citrobacter diversus; [18]): 12.5 µg/mL
